Test results taken from ChEMBL document CHEMBL5036318, “Synthesis and Biological Evaluation of Phosphoester and Phosphorothioate Prodrugs of STING Agonist 3',3'-c-Di(2'F,2'dAMP)” (J Med Chem, 2021).

How the values were obtained:
[1] = Drug uptake in human THP1-Dual cells at 1.25 uM incubated for 2 hrs by HPLC-LS analysis; format: ADME, cell-based
[2] = Drug metabolism in human THP1-Dual cells assessed as 3',3'-c-di(2'F,2'dAMP) metabolite formation measured after 2 hrs by HPLC analysis; format: ADME, cell-based
[3] = Drug metabolism in human THP1-Dual cells assessed as 3',3'-c-di(2'F,2'dAMP) metabolite formation measured after 24 hrs by HPLC analysis; format: ADME, cell-based
[4] = biological target: T1, Stimulator of interferon genes protein (Homo sapiens, UniProt Q86WV6); assay: Activation of wild-type human STING expressed in digitonin treated HEK293T cells co-expressing IRF3-activated ISRE assessed as IRF3 reporter activation by luciferase reporter gene assay; format: cell-based
T1 sequence (Q86WV6 whole entry): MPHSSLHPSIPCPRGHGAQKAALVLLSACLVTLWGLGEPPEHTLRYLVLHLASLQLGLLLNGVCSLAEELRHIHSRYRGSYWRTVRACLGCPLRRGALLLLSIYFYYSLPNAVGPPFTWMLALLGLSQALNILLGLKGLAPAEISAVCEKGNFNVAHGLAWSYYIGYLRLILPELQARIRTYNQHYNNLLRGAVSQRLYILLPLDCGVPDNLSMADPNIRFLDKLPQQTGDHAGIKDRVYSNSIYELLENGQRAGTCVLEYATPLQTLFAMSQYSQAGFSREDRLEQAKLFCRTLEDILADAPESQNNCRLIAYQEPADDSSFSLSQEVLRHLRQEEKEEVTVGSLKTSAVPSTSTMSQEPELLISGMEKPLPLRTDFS

[5] = biological target: Stimulator of interferon genes protein (Homo sapiens, UniProt Q86WV6, G230A/R293Q/R71H); assay: Activation of human STING HAQ mutant expressed in digitonin treated HEK293T cells co-expressing IRF3-activated ISRE assessed as IRF3 reporter activation by luciferase reporter gene assay; format: cell-based
Stimulator of interferon genes protein (Homo sapiens, UniProt Q86WV6, G230A/R293Q/R71H), sequence (Q86WV6 whole entry R71H/G230A/R293Q): as the sequence (Q86WV6 whole entry) above, with R71H, G230A, R293Q counted along it

[6] = biological target: Stimulator of interferon genes protein (Homo sapiens, UniProt Q86WV6, G230A/R293Q); assay: Activation of human STING QA mutant expressed in digitonin treated HEK293T cells co-expressing IRF3-activated ISRE assessed as IRF3 reporter activation by luciferase reporter gene assay; format: cell-based
Stimulator of interferon genes protein (Homo sapiens, UniProt Q86WV6, G230A/R293Q), sequence (Q86WV6 whole entry G230A/R293Q): as the sequence (Q86WV6 whole entry) above, with G230A, R293Q counted along it

[7] = Activation of human STING Q mutant expressed in digitonin treated HEK293T cells co-expressing IRF3-activated ISRE assessed as IRF3 reporter activation by luciferase reporter gene assay; format: cell-based; conditions: HEK-293T
[8] = biological target: T1, Stimulator of interferon genes protein; assay: Binding affinity to wild type STING (unknown origin) assessed as change in melting temperature by differential scanning fluorimetry; conditions: filed as activator
[9] = biological target: T1, Stimulator of interferon genes protein; assay: Binding affinity to human STING expressed in […] cells assessed as change in melting temperature by Cell-based assay; conditions: HEK293T, filed as activator
cells = conditions: Homo sapiens, HEK-293T
Description: Activation of human STING REF mutant expressed in digitonin treated HEK293T cells co-expressing IRF3-activated ISRE assessed as IRF3 reporter activation by luciferase reporter gene assay

[10] = biological target: T1, Stimulator of interferon genes protein; assay: Activation of wild-type human STING expressed in HEK293T cells co-expressing IRF3-activated ISRE assessed as IRF3 reporter activation measured after 30 mins by luciferase reporter gene assay; format: cell-based
[11] = biological target: T1, Stimulator of interferon genes protein; assay: Activation of wild-type human STING expressed in digitonin treated human THP1-Dual cells co-expressing IRF3-activated ISRE assessed as IRF3 reporter activation measured after 30 mins by luciferase reporter gene assay; format: cell-based
[12] = biological target: T1, Stimulator of interferon genes protein; assay: Activation of wild-type human STING expressed in human THP1-Dual cells co-expressing IRF3-activated ISRE assessed as IRF3 reporter activation measured after 7 hrs by luciferase reporter gene assay; format: cell-based
[13] = Induction of INF-alpha production in healthy human PBMC incubated for 16 hrs; format: functional, tissue-based
[14] = Induction of INF-gamma production in healthy human PBMC incubated for 16 hrs; format: functional, tissue-based
[15] = Induction of TNF-alpha production in healthy human PBMC incubated for 16 hrs; format: functional, tissue-based
[16] = Drug uptake in human THP1-Dual cells at 125 uM incubated for 24 hrs by HPLC-LS analysis; format: ADME, cell-based
[17] = Drug uptake in human THP1-Dual cells at extra cellular concentration incubated for 24 hrs by HPLC-LS analysis; format: ADME, cell-based
[18] = biological target: T1, Stimulator of interferon genes protein; assay: Activation of wild-type human STING expressed in HEK293T cells co-expressing IRF3-activated ISRE assessed as IRF3 reporter activation measured after 7 hrs by luciferase reporter gene assay; format: cell-based
[19] = Potency index, ratio of test compound EC50 to prodrug EC50 for induction of INF-alpha production in healthy human PBMC incubated for 16 hrs; format: functional
[20] = Potency index, ratio of test compound EC50 to prodrug EC50 for induction of INF-gamma production in healthy human PBMC incubated for 16 hrs; format: functional
[21] = Stability in human plasma assessed as half life; format: ADME, cell-free
[22] = Stability in mouse plasma assessed as half life; format: ADME, cell-free
[23] = Potency index, ratio of test compound EC50 to prodrug EC50 for induction of TNF-alpha production in healthy human PBMC incubated for 16 hrs; format: functional

| EC50 [4] [nM] | EC50 [5] [nM] | EC50 [6] [nM] | EC50 [7] [nM] | ΔTm [8] [°C] | ΔTm [9] [°C] | EC50 (cells) [nM] | EC50 [10] [nM] | EC50 [11] [nM] | EC50 [12] [nM] | SMILES | EC50 [13] [nM] | EC50 [14] [nM] | EC50 [15] [nM] | further results |
| --- | --- | --- | --- | --- | --- | --- | --- | --- | --- | --- | --- | --- | --- | --- |
| – | – | – | – | – | – | – | – | – | – | [3H]c1nc2c(N)ncnc2n1[C@@H]1O[C@@H]2CO[P@@](=O)(OCOC(=O)C(C)(C)C)O[C@H]3[C@@H](F)[C@H](n4c([3H])nc5c(N)ncnc54)O[C@@H]3CO[P@](=O)(OCOC(=O)C(C)(C)C)O[C@H]2[C@H]1F | – | – | – | Drug uptake [1]: Active; Drug metabolism [2]: Metabolite_Detected; Drug metabolism [3]: Metabolite_Notdetected |
| 7 | 130 | 70 | 450 | 8.9 | 8.9 | 920 | – | – | – | Nc1ncnc2c1ncn2[C@@H]1O[C@@H]2CO[P@](=O)(S)O[C@H]3[C@@H](F)[C@H](n4cnc5c(N)ncnc54)O[C@@H]3COP(=O)(O)O[C@H]2[C@H]1F | – | – | – | – |
| 20 | 50 | – | 210 | 11.2 | 11.2 | 360 | 520 | 3030 | 310 | Nc1ncnc2c1ncn2[C@@H]1O[C@@H]2CO[P@@](=O)(S)O[C@H]3[C@@H](F)[C@H](n4cnc5c(N)ncnc54)O[C@@H]3CO[P@](=O)(S)O[C@H]2[C@H]1F | 17700 | 11200 | 7290 | – |
| 40 | 80 | 40 | 80 | 15.9 | – | 130 | 7020 | 3560 | 360 | Nc1ncnc2c1ncn2[C@@H]1O[C@@H]2CO[P@@](=O)(S)O[C@H]3[C@@H](F)[C@H](n4cnc5c(N)ncnc54)O[C@@H]3CO[P@@](=O)(S)O[C@H]2[C@H]1F | 38700 | 6080 | 9370 | – |
| 40 | 100 | 40 | 100 | 14.7 | 14.7 | – | – | – | – | Nc1ncnc2c1ncn2[C@@H]1O[C@@H]2CO[P@@](=O)(S)O[C@H]3[C@@H](F)[C@H](n4cnc5c(N)ncnc54)O[C@@H]3COP(=O)(O)O[C@H]2[C@H]1F | – | – | – | – |
| – | – | – | – | – | – | – | – | – | – | [3H]c1nc2c(N)ncnc2n1[C@@H]1O[C@@H]2CO[P@@](=O)(OCOC(=O)C(C)(C)C)O[C@H]3[C@@H](F)[C@H](n4c([3H])nc5c(N)ncnc54)O[C@@H]3CO[P@@](=O)(OCOC(=O)C(C)(C)C)O[C@H]2[C@H]1F | – | – | – | Drug uptake [1]: Active; Drug metabolism [2]: Metabolite_Detected; Drug metabolism [3]: Metabolite_Notdetected |
| – | – | – | – | – | – | – | – | – | – | [3H]c1nc2c(N)ncnc2n1[C@@H]1O[C@@H]2COP(=O)(O)O[C@H]3[C@@H](F)[C@H](n4c([3H])nc5c(N)ncnc54)O[C@@H]3COP(=O)(O)O[C@H]2[C@H]1F | – | – | – | Drug uptake [16]: Not Active; Drug uptake [17]: Not Active |
| 170 | 880 | 260 | 4070 | 5.5 | – | 8700 | 2280 | 12100 | 7790 | Nc1ncnc2c1ncn2[C@@H]1O[C@@H]2CO[P@](=O)(S)O[C@H]3[C@@H](F)[C@H](n4cnc5c(N)ncnc54)O[C@@H]3CO[P@](=O)(S)O[C@H]2[C@H]1F | 29600 | 9870 | 26800 | – |

| SMILES | EC50 [4] [nM] | EC50 [5] [nM] | EC50 [6] [nM] | EC50 [7] [nM] | ΔTm [8] [°C] | ΔTm [9] [°C] | EC50 (cells) [nM] | EC50 [10] [nM] | EC50 [11] [nM] | EC50 [12] [nM] | EC50 [13] [nM] | EC50 [14] [nM] | EC50 [15] [nM] | further results |
| --- | --- | --- | --- | --- | --- | --- | --- | --- | --- | --- | --- | --- | --- | --- |
| CC(C)(C)C(=O)OCO[P@@]1(=O)OC[C@H]2O[C@@H](n3cnc4c(N)ncnc43)[C@H](F)[C@@H]2O[P@](=O)(OCOC(=O)C(C)(C)C)OC[C@H]2O[C@@H](n3cnc4c(N)ncnc43)[C@H](F)[C@@H]2O1 | – | – | – | – | – | – | – | 70 | 180 | 50 | 440 | 70 | 240 | EC50 [18]: 40 nM; Ratio EC50 [19]: 115; Ratio EC50 [20]: 110; half-life [21]: 1 h; half-life [22]: < 2 min |
| CC(C)(C)C(=O)OCO[P@]1(=O)OC[C@H]2O[C@@H](n3cnc4c(N)ncnc43)[C@H](F)[C@@H]2O[P@](=O)(OCOC(=O)C(C)(C)C)OC[C@H]2O[C@@H](n3cnc4c(N)ncnc43)[C@H](F)[C@@H]2O1 | – | – | – | – | – | – | – | 30 | 110 | 30 | 220 | 60 | 110 | EC50 [18]: 20 nM; Ratio EC50 [19]: 234; Ratio EC50 [20]: 148; Ratio EC50 [23]: 279; half-life [21]: 1.17 h; half-life [22]: < 2 min |
